Patent publication US7989394B2, “Substituted 1-(azolin-2-yl)-amino-2-aryl-1-hetaryl-ethane compounds” (BASF SE, priority 2006, dated 2011)

Experiments:
[1] = test system: Cotton Aphid (Aphis gossypii); experiment: Cotton aphid (Aphis gossypii) mortality on dipped cotton plants; type: in vivo; settings: 120 h, cotton cotyledons dipped, aphid mortality after 5 days, read-out: mortality in comparison with untreated controls
Protocol: I. Cotton Aphid (Aphis gossypii)
(§1) Cotton plants in the cotyledon stage (variety ‘Delta Pine’) are infested with approximately 100 laboratory-reared aphids by placing infested leaf sections on top of the test plants. The leaf sections are removed after 24 hours. The cotyledons of the intact plants are dipped into gradient solutions of the test compound. Aphid mortality on the treated plants, relative to mortality on check plants, is determined after 5 days.

[2] = test system: Green Peach Aphid (Myzus persicae); experiment: Green peach aphid (Myzus persicae) mortality on dipped pepper plants; type: in vivo; settings: 120 h, pepper leaves dipped, aphid mortality after 5 days, read-out: mortality in comparison with untreated controls
Protocol: II. Green Peach Aphid (Myzus persicae)
as §1, with “Pepper” for “Cotton”, “2nd leaf-pair” for “cotyledon”, “‘California Wonder’)” for “‘Delta Pine’)”, “40” for “100”, “leaves” for “cotyledons”

Cc1cc(C)cc(CC(NC2=NCCS2)c2cccs2)c1 (racemic) [Example 22, (4,5-Dihydro-thiazol-2-yl)-[2-(3,5-dimethyl-phenyl)-1-thien-2-yl-ethyl]-amine]
mortality at 300 ppm [1]: > 70% | mortality at 300 ppm [2]: > 70%

Cc1cc(C)cc(CC(NC(=S)NCCO)c2cccs2)c1 (racemic) [Example 6, 1-[2-(3,5-Dimethyl-phenyl)-1-thien-2-yl-ethyl]-3-(2-hydroxy-ethyl)-thiourea]
mortality at 300 ppm [1]: > 70% | mortality at 300 ppm [2]: > 70%

Cc1cc(C)cc(CC(NC2=NCCS2)c2ccco2)c1 (racemic) [Example 23, (4,5-Dihydro-thiazol-2-yl)-[2-(3,5-dimethyl-phenyl)-1-furan-2-yl-ethyl]-amine]
mortality at 300 ppm [1]: > 70% | mortality at 300 ppm [2]: > 70%
